The record followed here is PMC11972359, “Flexibility-tuning of dual-display DNA-encoded chemical libraries facilitates cyclic peptide ligand discovery” (Nature Communications, 2025).

T1 sequence (P05187 23-506 limits assumed): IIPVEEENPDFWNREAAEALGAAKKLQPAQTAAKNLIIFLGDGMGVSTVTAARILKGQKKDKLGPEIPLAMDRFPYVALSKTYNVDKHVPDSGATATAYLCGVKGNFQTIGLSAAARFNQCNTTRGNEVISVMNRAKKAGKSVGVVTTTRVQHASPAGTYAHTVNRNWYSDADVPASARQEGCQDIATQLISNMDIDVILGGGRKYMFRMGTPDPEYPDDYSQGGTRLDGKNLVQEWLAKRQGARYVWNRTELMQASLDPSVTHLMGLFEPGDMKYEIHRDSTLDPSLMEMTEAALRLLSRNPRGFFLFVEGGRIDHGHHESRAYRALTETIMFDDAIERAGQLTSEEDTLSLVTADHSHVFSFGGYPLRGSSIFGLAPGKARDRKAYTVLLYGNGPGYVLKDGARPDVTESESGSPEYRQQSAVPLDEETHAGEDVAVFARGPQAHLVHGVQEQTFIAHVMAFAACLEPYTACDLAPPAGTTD

The first experiment deals with streptavidin (Streptomyces avidinii, UniProt P22629). In words: biochemical. In kind it is binding.
Chain of streptavidin (P22629 25-183): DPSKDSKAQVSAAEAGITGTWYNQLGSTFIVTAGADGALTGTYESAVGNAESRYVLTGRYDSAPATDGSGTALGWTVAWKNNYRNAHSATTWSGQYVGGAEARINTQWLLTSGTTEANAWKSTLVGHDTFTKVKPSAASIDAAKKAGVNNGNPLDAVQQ
Conditions: not given
Here is the method:
LNA5 and LNA3 conjugates were hybridized by mixing 25 µL of LNA5 (2 µM) and 25 µL of LNA3 (2 µM) conjugates in water and heating to 70 °C for 5-10 min. After cooling down the solution to room temperature, 950 µL of 1x PBS was added to the LNA solution. The hybridized LNA conjugates were then tested via fluorescence polarization.
If the LNA conjugates were clicked together, they were diluted to 1 µM, 50 µL of a clicked conjugate was diluted with 950 µL 1x PBS and tested by fluorescence polarization.
Separately, a 16-point serial dilution of protein was performed in PBS in PCR tubes. 4 µL of the 50 nM conjugate was mixed with 4 µL of each protein dilution in black 384-well plates to a final volume of 8 µL. The plate was incubated for 30 min in the dark and centrifuged briefly to remove bubbles. Fluorescence anisotropy was measured at 535 nm. Data was fitted using Prism 10. Raw data from experimental FP measurements can be found in Supplementary Information, section 7.1.
7.1. Fluorescence Polarization
LNA5 and LNA3 conjugates were hybridized by mixing 25 µL of LNA5 (2 µM) and 25 µL of LNA3 (2 µM) conjugates in mQ and heating to 70 °C for 5-10 min. After cooling down the solution to room temperature, 950 µL of 1x PBS was added to the LNA solution. The hybridized LNA conjugates were then tested via fluorescence polarization experiment.
If the LNA conjugates were clicked together, they were diluted to 1 µM, 50 µL of a clicked conjugate could then be taken, diluted with 950 µL 1x PBS and tested via fluorescence […]
All other off-DNA fluoresceinated compounds were diluted to 50 nM in 1xPBS containing 5% […]
Separately, a 16-point serial dilution of protein was performed in PBS in PCR tubes. 4 µL of the 50 nM conjugate was mixed with 4 µL of each protein dilution in black 384-well plates to a final volume of 8 µL. The plate was incubated for 30 min in the dark and centrifuged briefly to remove bubbles. Fluorescence anisotropy was measured at 535 nm. Data was obtained and fitted using Prism 10.
Compound `CC(C)C[C@H](C(=O)N1Cc2cc(C(=O)N[C@@H](CSCC(N)=O)C(=O)NCCCCCC(=O)N[C@@H](CCCCNC(=O)c3ccc4c(c3)C(=O)OC43c4ccc(O)cc4Oc4cc(O)ccc43)C(N)=O)sc2C1)n1cc(CN2CCC[C@H]2C(=O)N[C@H](CC2CCCCC2)C(=O)N[C@@H](CSCC(N)=O)C(N)=O)nn1` [Compound 7-L0] yielded a Kd of 173 nM.
The compound `CC(C)C[C@@H]1C(=O)N2Cc3cc(sc3C2)C(=O)N[C@H](C(=O)NCCCCCC(=O)N[C@@H](CCCCNC(=O)c2ccc3c(c2)C(=O)OC32c3ccc(O)cc3Oc3cc(O)ccc32)C(N)=O)CSCCS(=O)(=O)CS(=O)(=O)CCSC[C@@H](C(N)=O)NC(=O)[C@@H](CC2CCCCC2)NC(=O)[C@@H]2CCCN2Cc2cn1nn2` [Compound 7-L1] had a Kd of over 5000 nM.
Same read-out and setting: with `CC(C)C[C@@H]1C(=O)N2Cc3cc(sc3C2)C(=O)N[C@H](C(=O)NCCCCCC(=O)N[C@@H](CCCCNC(=O)c2ccc3c(c2)C(=O)OC32c3ccc(O)cc3Oc3cc(O)ccc32)C(N)=O)CSCc2ccc(cc2)CSC[C@@H](C(N)=O)NC(=O)[C@@H](CC2CCCCC2)NC(=O)[C@@H]2CCCN2Cc2cn1nn2` [Compound 7-L2] the figure was over 5000 nM.
The same measure, in the same setting: as for `CC(C)C[C@@H]1C(=O)N2Cc3cc(sc3C2)C(=O)N[C@H](C(=O)NCCCCCC(=O)N[C@@H](CCCCNC(=O)c2ccc3c(c2)C(=O)OC32c3ccc(O)cc3Oc3cc(O)ccc32)C(N)=O)CSCc2cccc(c2)CSC[C@@H](C(N)=O)NC(=O)[C@@H](CC2CCCCC2)NC(=O)[C@@H]2CCCN2Cc2cn1nn2` [Compound 7-L3], the figure is over 5000 nM; as for `CC(C)C[C@@H]1C(=O)N2Cc3cc(sc3C2)C(=O)N[C@H](C(=O)NCCCCCC(=O)N[C@@H](CCCCNC(=O)c2ccc3c(c2)C(=O)OC32c3ccc(O)cc3Oc3cc(O)ccc32)C(N)=O)CSC/C=C/CSC[C@@H](C(N)=O)NC(=O)[C@@H](CC2CCCCC2)NC(=O)[C@@H]2CCCN2Cc2cn1nn2` [Compound 7-L4], over 5000 nM; as for `CC(C)C[C@@H]1C(=O)N2Cc3cc(sc3C2)C(=O)N[C@H](C(=O)NCCCCCC(=O)N[C@@H](CCCCNC(=O)c2ccc3c(c2)C(=O)OC32c3ccc(O)cc3Oc3cc(O)ccc32)C(N)=O)CSC/C=C\CSC[C@@H](C(N)=O)NC(=O)[C@@H](CC2CCCCC2)NC(=O)[C@@H]2CCCN2Cc2cn1nn2` [Compound 7-L5], over 5000 nM.
On the same count and under the same terms, as for `NC(=O)CSC[C@H](NC(=O)[C@@H](CC1CCCCC1)NC(=O)[C@@H]1CCCN1Cc1cn([C@H](CC2CCC2)C(=O)N2Cc3cc(C(=O)N[C@@H](CSCC(N)=O)C(=O)NCCCCCC(=O)N[C@@H](CCCCNC(=O)c4ccc5c(c4)C(=O)OC54c5ccc(O)cc5Oc5cc(O)ccc54)C(N)=O)sc3C2)nn1)C(N)=O` [Compound 8-L0], the figure is 118 nM.

A further experiment has as its target T1, placental alkaline phosphatase (PLAP) (Homo sapiens, UniProt P05187).
T1 construct: AviTag (biotinylated in vitro by BirA); 6xHis-tag; made in house; host or cells: Chinese hamster ovary (CHO) cells
In words: PLAP inhibition assay (pNPP substrate). In kind it is biochemical. As to conditions: off-DNA; pH 10 (activation buffer pH 9.8); read-out: IC50 (determined fit). As for the experimental part: For the PLAP inhibition assay, 500 µM of inhibitor was used for a 16-point serial dilution in 10% DMSO/activation buffer in PCR tubes. Separately, a 12.5 nM solution of PLAP and a 4.5 mM solution of p-nitrophenylphosphate (pNPP) were prepared in activation buffer (see below). 8 µL of each inhibitor dilution was mixed with 16 µL of enzyme solution and 16 µL of pNPP solution and gently mixed. The assay was allowed to develop in the dark for 30 min (activation buffer pH10: 150 mM diethanolamine, 1 mM MgCl2, 60 mM ZnCl2 in water, pH 9.8) or 1 hour (activation buffer pH9: 150 mM Tris, 1 mM MgCl2, 60 mM ZnCl2 in water, pH 9.0). 50 µL of 2 M NaOH was then added to quench the reaction. Readout was performed to detect 405 nm vs 620 nm absorption. Data was fitted using Prism 10. Raw data from PLAP measurements can be found in Supplementary Information, section 7.2.2.
Human alpha-thrombin was obtained from Prolytix (Haematologic Technologies) - BioConnect Website and used in FP and inhibition assays. Biotinylated thrombin used for selections was obtained from Sigma Aldrich.
The recombinant human placental alkaline phosphatase (hPLAP) labelled with AviTag™ and 6xHis-tag was produced in Chinese hamster ovary (CHO) cells and was purified by Ni-NTA affinity chromatography and size-exclusion chromatography. The in-vitro biotinylation of the protein is mediated by BirA protein system. “Early-fraction” is the final material used for fluorescence polarization and inhibition experiments.
Figure S32: Quality characterization of recombinant hPLAP. A. The size exclusion chromatogram of purifying recombinant hPLAP expressed in CHO cells after Ni-NTA affinity chromatography purification and biotinylation. […] The absorbances at 450nm were measured with/without the presence of hPLAP and/or human PLAP antibody. […]
Protocol was adapted from Habeshian et al. 12. […] Fluorescence (excitation at 360 nm, emission at 465 nm) was measured every 3 min for 30 min. […] Data was measured in triplicate. […]
and gently mixed. […] Readout was performed to detect 405 nm vs 620 nm absorption. […]
For `NC(=O)CSC[C@H](NC(=O)C[C@H](Cc1ccccc1Cl)NC(=O)[C@@H](N)Cc1ccccc1Cl)C(=O)NCCCCCC(=O)N[C@@H](CCCCNC(=S)Nc1ccc2c(c1)C(=O)OC21c2ccc(O)cc2Oc2cc(O)ccc21)C(N)=O` [Compound 21], the IC50 amounted to 21000 nM.

Still in this experiment, the particulars now being: off-DNA; pH not printed with the values, pH 9 implied by b30; mean of n=3; read-out: IC50.
On to `NC(=O)CSC[C@H](NC(=O)C[C@H](Cc1ccccc1Cl)NC(=O)[C@@H](N)Cc1ccccc1Cl)C(=O)NCCCCCC(=O)N[C@@H](CCCCNC(=S)Nc1ccc2c(c1)C(=O)OC21c2ccc(O)cc2Oc2cc(O)ccc21)C(N)=O` [Compound 21], for which the IC50 is 2500 nM.
The same measure, in the same setting: as for `C#CCN1CCC[C@H]1C(=O)N[C@H](CC(=O)N[C@@H](CSC1CC(=O)N(CCN2C(=O)CC(SC[C@H](NC(=O)C[C@H](Cc3ccccc3Cl)NC(=O)[C@@H](N)Cc3ccccc3Cl)C(=O)NCCCCCC(=O)N[C@@H](CCCCNC(=S)Nc3ccc4c(c3)C(=O)OC43c4ccc(O)cc4Oc4cc(O)ccc43)C(N)=O)C2=O)C1=O)C(N)=O)Cc1ccccc1Cl` (stereo partly shown) [Compound 22], the figure is 1430 nM.
